# Data from paper PMC5400565, “Real-time near-infrared fluorescence imaging using cRGD-ZW800-1 for intraoperative visualization of multiple cancer types” (Oncotarget, 2017).
# What was measured:
# Adrenergic β1 = target: T1, Adrenergic β1 (Homo sapiens, UniProt P08588); assay: Off-target screening (Eurofins Cerep), β1; assay type: binding
# T1 construct: Eurofins Cerep SA (contract screening)
# Adrenergic β2 = target: T2, Adrenergic β2 (Homo sapiens, UniProt P07550); assay: Off-target screening (Eurofins Cerep), β2; assay type: binding
# T2 construct: Eurofins Cerep SA (contract screening)
# Dopamine D1 = target: T3, Dopamine D1 (Homo sapiens, UniProt P21728); assay: Off-target screening (Eurofins Cerep), D1; assay type: binding
# T3 construct: Eurofins Cerep SA (contract screening)
# T3 sequence (P21728 whole entry): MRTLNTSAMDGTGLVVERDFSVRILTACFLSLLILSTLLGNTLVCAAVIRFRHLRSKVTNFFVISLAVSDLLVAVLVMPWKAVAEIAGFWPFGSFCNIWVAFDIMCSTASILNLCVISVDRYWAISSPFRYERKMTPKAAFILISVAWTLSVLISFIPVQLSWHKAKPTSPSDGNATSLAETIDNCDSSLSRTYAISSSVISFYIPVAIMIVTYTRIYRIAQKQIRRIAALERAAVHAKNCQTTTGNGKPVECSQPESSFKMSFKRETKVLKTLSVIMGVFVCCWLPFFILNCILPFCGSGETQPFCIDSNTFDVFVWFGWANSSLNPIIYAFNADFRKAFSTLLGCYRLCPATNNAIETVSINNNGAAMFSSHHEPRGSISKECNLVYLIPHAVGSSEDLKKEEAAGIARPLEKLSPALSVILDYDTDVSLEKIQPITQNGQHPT
# Histamine H1 = target: T4, Histamine H1 (Homo sapiens, UniProt P35367); assay: biochemical; assay type: binding
# T4 construct: Eurofins Cerep SA (contract screening)
# T4 sequence (P35367 whole entry): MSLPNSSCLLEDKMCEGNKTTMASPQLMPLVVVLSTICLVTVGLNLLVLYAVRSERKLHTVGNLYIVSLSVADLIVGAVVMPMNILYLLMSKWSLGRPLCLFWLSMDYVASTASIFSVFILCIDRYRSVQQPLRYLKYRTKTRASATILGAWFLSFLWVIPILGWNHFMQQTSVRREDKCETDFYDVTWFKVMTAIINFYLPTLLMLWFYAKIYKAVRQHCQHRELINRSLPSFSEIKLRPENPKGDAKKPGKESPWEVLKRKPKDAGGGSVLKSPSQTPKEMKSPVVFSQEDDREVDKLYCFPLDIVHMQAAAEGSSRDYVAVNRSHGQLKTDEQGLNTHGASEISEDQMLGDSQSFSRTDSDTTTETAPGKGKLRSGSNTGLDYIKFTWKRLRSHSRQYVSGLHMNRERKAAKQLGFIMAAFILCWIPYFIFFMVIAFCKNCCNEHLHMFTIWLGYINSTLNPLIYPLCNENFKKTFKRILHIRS
# Histamine H2 = target: T5, Histamine H2 (Homo sapiens, UniProt P25021); assay: Off-target screening (Eurofins Cerep), H2; assay type: binding
# T5 construct: Eurofins Cerep SA (contract screening)
# Opioid µ (MOP) = target: T6, Opioid µ (MOP) (Homo sapiens, UniProt P35372); assay: Off-target screening (Eurofins Cerep), µ (MOP); assay type: binding
# T6 construct: Eurofins Cerep SA (contract screening)
# T6 sequence (P35372 whole entry): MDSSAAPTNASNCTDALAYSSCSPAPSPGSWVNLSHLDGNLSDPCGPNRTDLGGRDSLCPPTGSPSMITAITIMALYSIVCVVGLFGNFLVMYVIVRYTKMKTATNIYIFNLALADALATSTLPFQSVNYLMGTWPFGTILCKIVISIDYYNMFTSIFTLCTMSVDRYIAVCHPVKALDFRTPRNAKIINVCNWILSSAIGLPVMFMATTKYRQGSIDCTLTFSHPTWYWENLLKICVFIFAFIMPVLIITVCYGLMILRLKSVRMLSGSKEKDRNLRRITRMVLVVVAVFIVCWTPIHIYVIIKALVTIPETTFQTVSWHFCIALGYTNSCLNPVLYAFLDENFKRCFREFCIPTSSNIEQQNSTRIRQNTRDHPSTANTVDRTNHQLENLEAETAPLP
# Serotonin 5-HT1A = target: T7, Serotonin 5-HT1A (Homo sapiens, UniProt P08908); assay: Off-target screening (Eurofins Cerep), 5-HT1A; assay type: binding
# T7 construct: Eurofins Cerep SA (contract screening)
# T7 sequence (P08908 whole entry): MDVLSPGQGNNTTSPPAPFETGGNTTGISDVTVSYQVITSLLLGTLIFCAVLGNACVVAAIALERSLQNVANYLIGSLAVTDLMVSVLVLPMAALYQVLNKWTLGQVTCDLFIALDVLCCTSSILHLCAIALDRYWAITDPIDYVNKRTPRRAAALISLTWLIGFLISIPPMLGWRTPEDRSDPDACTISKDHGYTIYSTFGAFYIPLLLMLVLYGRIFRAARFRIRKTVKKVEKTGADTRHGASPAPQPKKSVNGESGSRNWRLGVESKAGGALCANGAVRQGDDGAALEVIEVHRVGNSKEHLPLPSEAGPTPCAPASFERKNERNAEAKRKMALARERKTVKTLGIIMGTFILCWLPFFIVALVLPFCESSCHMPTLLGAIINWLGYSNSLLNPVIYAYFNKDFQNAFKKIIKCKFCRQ
# [1] = test system: GABA channels BZD (central); assay: Off-target screening (Eurofins Cerep), BZD (central); assay type: binding
# Description: Off-target interactions are binding of tracers to other components on the cell surface than the actual target site. These non-specific interactions are often of low affinity and easily missed, but can have significant effects. We outsourced the screening for in vitro for off-target interactions of cRGD-ZW800-1 to Eurofins Cerep SA, Le bois l’Evêque, France. They assessed the percentage of inhibition of a reference compound in 44 selected targets, including G protein-coupled receptors (GPCRs), transporters, ion channels, nuclear receptors, kinases and other non-kinase enzymes. These targets were recommended by four major pharmaceutical companies. The complete list is included in Supplementary Table 1 of the Supplementary Data. Each assay was performed twice using 10 μM cRGD-ZW800-1 and a reference compound. Inhibition higher than 50% was considered to represent a significant effect of cRGD-ZW800-1. Results showing between 20% and 50% were considered weak to moderate effects, while lower than 20% was not considered significant and mostly attributable to variability of the signal around the control level.
# Glutamate channels NMDA = Glutamate channels NMDA (Rattus norvegicus, UniProt Q00959); assay: Off-target screening (Eurofins Cerep), NMDA; assay type: binding
# Sequence of Glutamate channels NMDA (Q00959 23-1464, other chains not shown): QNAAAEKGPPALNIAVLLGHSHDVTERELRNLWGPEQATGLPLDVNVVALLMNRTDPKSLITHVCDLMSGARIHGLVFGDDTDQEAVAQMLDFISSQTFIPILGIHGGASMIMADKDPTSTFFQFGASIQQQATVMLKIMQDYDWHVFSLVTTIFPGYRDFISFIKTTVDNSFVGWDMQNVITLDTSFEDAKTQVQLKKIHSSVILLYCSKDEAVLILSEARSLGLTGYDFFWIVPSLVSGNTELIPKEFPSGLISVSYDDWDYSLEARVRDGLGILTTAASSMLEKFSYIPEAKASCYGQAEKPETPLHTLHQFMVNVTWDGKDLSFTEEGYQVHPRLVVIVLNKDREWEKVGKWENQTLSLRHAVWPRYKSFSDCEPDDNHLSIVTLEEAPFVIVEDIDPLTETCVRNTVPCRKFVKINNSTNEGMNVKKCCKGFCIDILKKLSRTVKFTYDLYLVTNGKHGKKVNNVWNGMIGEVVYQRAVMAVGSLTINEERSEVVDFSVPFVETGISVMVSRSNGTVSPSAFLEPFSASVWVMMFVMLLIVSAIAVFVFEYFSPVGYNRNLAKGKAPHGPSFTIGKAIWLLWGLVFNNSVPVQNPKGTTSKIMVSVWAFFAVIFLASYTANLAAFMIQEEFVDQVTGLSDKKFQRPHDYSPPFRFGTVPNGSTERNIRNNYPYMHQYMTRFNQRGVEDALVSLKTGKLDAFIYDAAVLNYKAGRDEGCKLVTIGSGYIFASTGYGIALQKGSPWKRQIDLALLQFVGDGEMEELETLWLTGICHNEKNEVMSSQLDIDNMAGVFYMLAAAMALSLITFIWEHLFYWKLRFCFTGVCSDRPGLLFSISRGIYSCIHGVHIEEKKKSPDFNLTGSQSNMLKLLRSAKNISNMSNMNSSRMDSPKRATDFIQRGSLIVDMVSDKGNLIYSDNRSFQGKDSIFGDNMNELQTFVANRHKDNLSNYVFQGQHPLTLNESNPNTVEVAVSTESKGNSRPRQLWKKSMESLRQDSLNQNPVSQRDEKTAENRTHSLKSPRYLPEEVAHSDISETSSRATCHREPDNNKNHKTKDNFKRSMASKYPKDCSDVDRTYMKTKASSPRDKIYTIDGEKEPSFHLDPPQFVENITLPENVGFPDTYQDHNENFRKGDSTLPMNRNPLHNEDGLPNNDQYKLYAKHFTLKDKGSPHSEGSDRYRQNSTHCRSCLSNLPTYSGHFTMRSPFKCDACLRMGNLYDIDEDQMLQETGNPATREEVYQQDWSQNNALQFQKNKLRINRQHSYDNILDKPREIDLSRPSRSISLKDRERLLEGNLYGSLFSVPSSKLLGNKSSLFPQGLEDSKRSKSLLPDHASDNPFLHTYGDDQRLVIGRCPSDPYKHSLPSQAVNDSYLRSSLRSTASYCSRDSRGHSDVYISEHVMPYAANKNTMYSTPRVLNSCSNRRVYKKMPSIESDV
# PDE3A = target: T8, PDE3A (Homo sapiens, UniProt Q14432); assay: Off-target screening (Eurofins Cerep), PDE3A; assay type: biochemical
# T8 construct: Eurofins Cerep SA (contract screen)
# T8 sequence (Q14432 whole entry): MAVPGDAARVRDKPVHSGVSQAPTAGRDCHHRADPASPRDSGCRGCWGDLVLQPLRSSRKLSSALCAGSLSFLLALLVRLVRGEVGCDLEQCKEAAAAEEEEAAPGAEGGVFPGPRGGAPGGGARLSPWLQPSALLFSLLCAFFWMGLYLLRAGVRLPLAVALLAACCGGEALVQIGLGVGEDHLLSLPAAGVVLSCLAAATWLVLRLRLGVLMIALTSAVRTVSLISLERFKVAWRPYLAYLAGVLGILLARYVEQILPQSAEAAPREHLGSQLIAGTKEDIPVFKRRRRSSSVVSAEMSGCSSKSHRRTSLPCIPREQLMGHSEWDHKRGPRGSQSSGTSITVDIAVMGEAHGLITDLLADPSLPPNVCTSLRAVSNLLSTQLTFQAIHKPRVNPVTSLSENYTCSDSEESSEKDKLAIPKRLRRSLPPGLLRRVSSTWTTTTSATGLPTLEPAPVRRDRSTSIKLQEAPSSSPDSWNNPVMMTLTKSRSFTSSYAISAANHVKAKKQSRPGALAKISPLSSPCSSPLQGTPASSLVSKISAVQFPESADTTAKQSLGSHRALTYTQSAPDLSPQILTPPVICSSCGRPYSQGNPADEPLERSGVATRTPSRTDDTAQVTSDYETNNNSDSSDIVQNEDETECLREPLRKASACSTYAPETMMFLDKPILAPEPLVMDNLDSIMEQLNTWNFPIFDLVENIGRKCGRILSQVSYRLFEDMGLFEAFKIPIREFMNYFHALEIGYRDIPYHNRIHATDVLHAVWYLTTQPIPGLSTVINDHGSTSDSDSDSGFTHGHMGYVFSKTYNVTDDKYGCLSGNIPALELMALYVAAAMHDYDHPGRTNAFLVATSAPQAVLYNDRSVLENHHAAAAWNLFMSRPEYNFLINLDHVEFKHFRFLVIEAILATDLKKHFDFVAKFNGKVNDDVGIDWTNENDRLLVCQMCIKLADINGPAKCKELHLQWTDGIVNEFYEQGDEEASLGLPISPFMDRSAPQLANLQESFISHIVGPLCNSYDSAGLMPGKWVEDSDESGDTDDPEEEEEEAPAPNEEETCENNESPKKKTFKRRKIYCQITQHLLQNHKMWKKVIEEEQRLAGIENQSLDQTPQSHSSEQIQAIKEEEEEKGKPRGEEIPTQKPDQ
# HT-29 cells = assay: In vitro competition with unlabeled cRGD, HT-29; assay type: cell-based, human; details: 500 nM cRGD-ZW800-1 + 500 nM unlabeled cRGD (1:1), 37°C, 2 h, vs cells without unlabeled cRGD, triplicate
# Description: (§1) For in vitro competition, U-87 MG (αvβ3 and αvβ5 positive, αvβ6 negative) and HT-29 (αvβ3 negative, αvβ5 and αvβ6 positive) cells were plated in a 96-well plate at a density of ∼40,000 and ∼60,000 cells per well, respectively. Subsequently, 500 nM of cRGD-ZW800-1 was simultaneously added to the cells and incubated at 37°C for 2 h. At the same time, half of the cells were also incubated with 500 nM unlabeled (“cold”) cRGD.
# (§2) Both the cells in the binding and the competition experiment were then washed twice and imaged with the Odyssey NIR scanner (LI-COR Biosciences, Lincoln, Nebraska: focus offset 3 mm; 800-nm channel). Next, cells were permeabilized with a 40/60 mixture of acetone and methanol followed by a washing step and a 5 min incubation with ToPro3 (1/2000, Invitrogen), a far red fluorescent dye (642/661nm). The wells were then washed and again imaged with the Odyssey scanner (focus offset 3 mm; 700-nm channel) to quantify the number of cells in each well. The experiments were performed in triplicate.
# U-87 MG cells = assay: In vitro competition with unlabeled cRGD, U-87 MG; assay type: cell-based, human; details: 500 nM cRGD-ZW800-1 + 500 nM unlabeled cRGD (1:1), 37°C, 2 h, vs cells without unlabeled cRGD, triplicate, p = 0.02
# Description: as §1, §2
# [2] = Pharmacokinetics in mice without tumors; assay type: in vivo
# Description: cRGD-ZW800-1 was diluted in 0.05 mM HEPES buffered mouse serum to the concentrations 5.00, 4.50, 4.00, 3.50, 3.00, 2.50, 2.00, 1.50, 1.00, 0.50, 0.25, 0.13, 0.06, 0.03, and 0.02 μM. A calibration curve was created by measuring each concentration in 60 μL capillary tubes (Hirschmann® Laborgeräte GmbH and co. KG, Eberstadt, Germany) using the FLARE® with exposure times of: 1, 2, 5, 10, 25, 50, 100, 200, 500, 1000, and 2000 msec. Data were plotted in fluorescence intensity over concentration (μM) (Supplementary Figure 2, Supplementary Data). For each exposure time, the formula of the linear regression line was calculated. Subsequently, 5 mice without tumors were injected with 10 nmol cRGD-ZW800-1 via the lateral tail vein. The contralateral lateral tail vein was used to draw blood on the time points -5, 1, 6, 10, 20, 30, 40, 50, 60, 90, 120, and 240 min. post injection. Blood samples were absorbed using 60 μL capillary tubes and immediately measured using the FLARE® with the same exposure times. Saturated images and those under the detection limit were excluded from analysis. Each measurement was calculated back to its concentration using the matching formulas (Supplementary Figure 3, Supplementary Data). The mean of each formula output was used as the concentration. Data was analyzed using NONMEM® software (Icon Development Solutions, Ellicott City, MD, U.S.A.). Data were plotted in logarithmic and linear concentration (μM) over time (min).
# Potassium Channel hERG = Potassium Channel hERG (Homo sapiens, UniProt Q12809)
# [3] = read-out: % Inhibition of Control Specific Binding
# [4] = read-out: % of Control Specific Binding Mean
# [5] = 10 μM cRGD-ZW800-1, format H, Ag, performed twice, read-out: % Inhibition of Control Specific Binding
# [6] = 10 μM, mean of 2, read-out: % of Control Specific Binding Mean
# [7] = mice, 10 nmol i.v., mean ± SD, n = 5
# T1 sequence (P08588 whole entry): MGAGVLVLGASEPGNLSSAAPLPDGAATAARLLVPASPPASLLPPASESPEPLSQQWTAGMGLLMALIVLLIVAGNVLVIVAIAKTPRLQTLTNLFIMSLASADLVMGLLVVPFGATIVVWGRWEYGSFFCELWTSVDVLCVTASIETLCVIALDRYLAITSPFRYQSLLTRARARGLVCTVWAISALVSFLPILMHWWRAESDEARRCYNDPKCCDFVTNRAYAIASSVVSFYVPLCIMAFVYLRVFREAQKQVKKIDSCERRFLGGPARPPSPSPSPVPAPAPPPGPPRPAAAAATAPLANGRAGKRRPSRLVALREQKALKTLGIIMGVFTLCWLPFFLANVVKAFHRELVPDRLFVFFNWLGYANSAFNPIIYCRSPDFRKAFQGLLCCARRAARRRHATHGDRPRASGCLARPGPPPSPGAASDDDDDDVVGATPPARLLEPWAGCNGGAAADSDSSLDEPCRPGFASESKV
compound,measurement,setting,value
CC1(C)C(/C=C/C2=C(Oc3ccc(CCC(=O)NCCCC[C@@H]4NC(=O)[C@@H](Cc5ccc(O)cc5)NC(=O)[C@H](CC(=O)O)NC(=O)CNC(=O)[C@H](CCCNC(=N)N)NC4=O)cc3)C(=C/C=C3/N(CCC[N+](C)(C)C)c4ccc(S(=O)(=O)O)cc4C3(C)C)/CCC2)=[N+](CCC[N+](C)(C)C)c2ccc(S(=O)(=O)O)cc21 [cRGD-ZW800-1],inhibition at 10 µM,Adrenergic β1; [3],18%
same,remaining activity at 10 µM,Adrenergic β1; [4],82.3%
same,inhibition at 10 µM,Adrenergic β2; [5],5%
same,remaining activity at 10 µM,Adrenergic β2; [6],95%
same,inhibition at 10 µM,Dopamine D1; [3],-1%
same,remaining activity at 10 µM,Dopamine D1; [4],101%
same,inhibition at 10 µM,Histamine H1; [3],-5%
same,remaining activity at 10 µM,Histamine H1; [4],105%
same,inhibition at 10 µM,Histamine H2; [3],-4%
same,remaining activity at 10 µM,Histamine H2; [4],104%
same,inhibition at 10 µM,Opioid µ (MOP); [5],10%
same,remaining activity at 10 µM,Opioid µ (MOP); [6],90.3%
same,inhibition at 10 µM,Serotonin 5-HT1A; [5],9%
same,remaining activity at 10 µM,Serotonin 5-HT1A; [6],90.9%
same,% Inhibition of Control Specific Binding,"[1]; 10 μM cRGD-ZW800-1, format Ag, performed twice",2%
same,% of Control Specific Binding Mean,"[1]; 10 μM, mean of 2",97.6%
same,inhibition at 10 µM,Glutamate channels NMDA; [3],10%
same,remaining activity at 10 µM,Glutamate channels NMDA; [4],90.4%
same,inhibition at 10 µM,"PDE3A; 10 μM cRGD-ZW800-1, format H, performed twice, read-out: % Inhibition of Control Specific Binding",-12%
same,remaining activity at 10 µM,PDE3A; [6],112%
same,reduction of fluorescence signal by unlabeled cRGD,HT-29 cells,32%
same,reduction of fluorescence signal by unlabeled cRGD,U-87 MG cells,36%
same,Clearance,"[2]; mice, 10 nmol i.v., mean systemic clearance ± SD, n = 5",0.25 ± 0.06 mL/min
same,Distribution (α) half-life,[2]; [7],14.6 ± 1.7 min
same,Terminal (β) half-life,[2]; [7],71.1 ± 9.4 min
same,maximal concentration in serum,"[2]; mice, 10 nmol i.v., measured at 1 minute post injection, n = 5, fluorescence (FLARE) with calibration curve",1.17 µM
same,AUC,"[2]; mice, 10 nmol i.v., trapezoid rule, mean ± SD, n = 5",38.9 ± 8.9
same,Half-life,"[2]; mice, blood, 10 nmol i.v., calculated via ln(2)/k10, mean ± SD, n = 5",25.3 ± 6.4 min
same,Elimination (β) half-life,[2]; mouse no. 1,64.8 min
same,Elimination (β) half-life,[2]; mouse no. 2,85.4 min
same,Elimination (β) half-life,[2]; mouse no. 3,68.6 min
same,Elimination (β) half-life,[2]; mouse no. 4,75.2 min
same,Elimination (β) half-life,[2]; mouse no. 5,61.8 min
same,activity at 10 µM,Potassium Channel hERG,106%
